pIC50: −log10 of the molar value.
Tests used:
[1] = target: human STING protein (140-379), WT (Homo sapiens, UniProt Q86WV6, H232R); assay: Radiometric filtration binding competition assay (FBA), hSTING-WT; conditions: WT-hSWAT IC50 (μM), WT_FBA_HIS-SUMO-hSWAT; wild-type human STING; competition with [H3] 2′3′cGAMP
[2] = test system: STING protein; IRF/IFN signaling in THP-1 R232 cells; assay: Cell based reporter assay, THP-1 R232 IRF-luc; conditions: Homo sapiens, THP1-dual-KI R232 cells, IRF luciferase reporter; for Emax: maximum measured activity, read-out: THP 1-dual-KI R232_IRF(Luciferase)_Activity Maximum measured (%); for pIC50: read-out: THP 1-dual-KI R232_IRF(Luciferase) IC50
Text: Cell reporter assays were developed to measure the ability of compounds of the application to activate the STING protein and activate both IRF/IFN and the NFkB signaling pathways in the myeloid derived cell line THP-1, which is commercially available from several suppliers. Briefly, THP-1 monocytes were transfected and selected for stable integration of 2 reporter constructs. Clones incorporating stably integrated vectors were further selected by antibiotic resistance to blastocidin and zeocin. The reporter constructs included: (1) firefly luciferase reporter gene under the control of an ISG54 promoter fused to five interferon (IFN)-stimulated response elements to measure IRF transcription factor binding activity and (2) secreted embryonic alkaline phosphatase reporter gene under transcription control of an IFN-beta minimal promoter fused to 5 copies of the NFkB consensus transcriptional response element and 3 copies of the c-Rel binding site.
The resulting THP-1 cell line was further modified to incorporate 3 amino acid point mutations (H71R A230G Q293R). This modification of the native TMEM173 gene in THP-1 cells (HAQ) was designed to produce a cell reporter that expressed the most common allelic variant in the human population (THP-1 R232, available from InvivoGen). Alternatively, the TMEM173 gene was knocked out to provide a congenic control to counter-screen for compound activation that was independent of the STING protein (THP-1 STING KO).
Once cell lines were established, reporter assay protocols were developed and optimized to screen small molecule compounds for agonist activity. Assay optimization for efficacy and Z′ value included titration of the following parameters:
• 1. Cell pre-activation with PMA • 2. Cell seeding density • 3. DMSO tolerance • 4. Media selection • 5. FBS concentration • 6. Incubation time • 7. Co-Assessment of cell viability by CTG assay • 8. Appropriate HPE and ZPE controls • 9. Dose Response Titration
• 1. No pre-activation with PMA • 2. 5×10^4 cells/well in 96 well plate format • 3. <0.5% DMSO • 4. RPMI 1640+2.5 mg/ml glucose • 5. 10% FBS • 6. 14-18 hr incubation • 7. Cell Titer Glo reagent (Promega) following supernatant removal • 8. […] 8 point, 2 fold, duplicate starting at 150 μM

[3] = target: T1, mouse STING protein (139-328) (Mus musculus, UniProt Q3TBT3); assay: Radiometric filtration binding competition assay (FBA), mSTING
T1 sequence (Q3TBT3 139-328): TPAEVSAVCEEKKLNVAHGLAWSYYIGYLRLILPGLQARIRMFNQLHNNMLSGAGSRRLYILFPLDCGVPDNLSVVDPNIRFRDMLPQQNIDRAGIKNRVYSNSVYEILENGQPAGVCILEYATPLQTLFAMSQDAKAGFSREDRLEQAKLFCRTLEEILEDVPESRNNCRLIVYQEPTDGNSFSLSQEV

[4] = target: hSTING-R232 (aa140-379) (Homo sapiens, UniProt Q86WV6, H232R); assay: STING differential scanning fluorimetry (DSF) assay, hSTING WT; conditions: shift in melting temperature apo vs ligand-bound
hSTING-R232 (aa140-379), sequence (Q86WV6 140-379 H232R): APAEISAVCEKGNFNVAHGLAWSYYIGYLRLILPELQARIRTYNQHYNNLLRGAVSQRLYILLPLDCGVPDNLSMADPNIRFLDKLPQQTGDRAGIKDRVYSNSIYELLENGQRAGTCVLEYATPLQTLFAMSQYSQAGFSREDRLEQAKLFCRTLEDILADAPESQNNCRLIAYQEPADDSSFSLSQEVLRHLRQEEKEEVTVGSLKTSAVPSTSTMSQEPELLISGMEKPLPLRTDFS
Method: A STING DSF assay was performed to determine protein thermostability shift in response to small molecule ligand binding. A STING thermnostability shift assay based on differential scanning fluorimetry was used to measure (1) the net shift in melting temperature (ΔTm) between the apo and ligand-bound states of the STING protein and (2) the concentration of the thermal denaturation transition (EC50) as a surrogate measure of binding affinity (Kd). […] Protein in assay buffer was transferred to a 384 well plate and incubated with the hydrophobic fluorescent dye SYBR Orange. A temperature ramp was applied to the plate and the resulting dye fluorescence was plotted as a function of temperature. The first derivative of this function (dF/dT) was then used to extrapolate the melting temperature of the protein at various concentrations of compound and determine the thermal denaturation profile of a protein/compound complex.
5 μM purified Target STING Protein • 3. 8 μM Sypro Orange Dye • 4. Buffer: 100 mM NaCl, 30 mM HEPES, pH 7.5 • 5. Thermal Ramp: 0.5° C./min • 6. <1% DMSO • 7. 11 point, 2 fold dilution, duplicate, 300 μM high concentrations • 8.

human STING protein (140-379), WT, sequence (Q86WV6 140-379 H232R): as above

| IC50 [1] | pIC50 [2] | pIC50 [3] | WT_DSF_hSWAT Tm Shift (° C.) [4] | SMILES | Emax [2] |
| --- | --- | --- | --- | --- | --- |
| < 20 µM | > 4.30 | > 4.70 | D (“D” >7° C.) | CN(C)c1c(Cl)ccc2c(=O)c3ccc(C(C)(C)C)cc3n(CC(=O)NS(C)(=O)=O)c12 [Compound 57] | > 50% |
| 20 to 100 µM | 4.00 to 4.30 | < 3.52 | B (“B” = 0-2° C.) | Cc1ccccc1-c1c(Cl)ccc2c(=O)c3ccccc3n(CC(=O)O)c12 [Compound 59] | 5 to 25% |
| 20 to 100 µM | < 3.82 | 4.00 to 4.70 | D (“D” >7° C.) | O=C(O)Cn1c2ccccc2c(=O)c2ccc(Cl)c(-c3cccs3)c21 [Compound 62] | 25 to 50% |
| 20 to 100 µM | > 4.30 | 4.00 to 4.70 | D (“D” >7° C.) | Cc1ccc2c(=O)c3ccc(Cl)c(N4CCCC4)c3n(CC(=O)O)c2c1 [Compound 64] | > 50% |
| < 20 µM | > 4.30 | – | D (“D” >7° C.) | CN(C)c1c(Cl)ccc2c(=O)c3cc(Cl)c(C(C)(C)C#N)cc3n(CC(=O)O)c12 [Compound 87] | > 50% |
| < 20 µM | > 4.30 | – | D (“D” >7° C.) | CN(C)c1c(Cl)ccc2c(=O)c3cc(Cl)c(C(C)(C)C)cc3n(CC(=O)O)c12 [Compound 88] | > 50% |
| < 20 µM | > 4.30 | – | D (“D” >7° C.) | C=Cc1cc2c(cc1Cl)c(=O)c1ccc(Cl)c(N(C)C)c1n2CC(=O)O [Compound 89] | > 50% |
| < 20 µM | > 4.30 | – | D (“D” >7° C.) | COc1ccccc1Nc1ccc2c(=O)c3ccc(Cl)c(N(C)C)c3n(CC(=O)O)c2c1 [Compound 90] | > 50% |
| < 20 µM | > 4.30 | – | D (“D” >7° C.) | CN(C)c1c(Cl)ccc2c(=O)c3cc(Cl)c(Nc4ccccc4)cc3n(CC(=O)O)c12 [Compound 91] | > 50% |
| < 20 µM | > 4.30 | – | D (“D” >7° C.) | CN(C)c1c(Cl)ccc2c(=O)c3ccc(Nc4c(F)cccc4F)cc3n(CC(=O)O)c12 [Compound 92] | > 50% |
